Legend:
Test in all cases: Example B1 herbicidal action, post-emergence, 96-cell seed trays, climatic chamber
Assay type in all cases: in vivo
[1] = system: Nasturtium officinale (NAAOF); design: scale not given here; conditions: Application post-emergence, 1000 mg/l spray equivalent to 1000 g/ha, evaluated after 9 days (100=total damage to plant, 0=no damage to plant)
Experimental: (§1) Seeds of a variety of test species were sown in sterilised standard soil in seed trays each having 96 cells. After cultivation for 8 to 9 days cultivation (post-emergence) under controlled conditions in a climatic chamber (cultivation at 23/17° C., day/night; 13 hours light; 50-60% humidity), the plants were treated with an aqueous spray solution of 1000 mg/l of the active ingredient dissolved in 10% DMSO (dimethyl sulfoxide, CAS RN 67-68-5) as a solvent, equivalent to 1000 g/ha. The plants were grown in the climatic chamber after application at (24/19° C., day/night; 13 hours light; 50-60% humidity) and watered twice daily. After 9 days until the test was evaluated (100=total damage to plant, 0=no damage to plant)

Solanum nigrum (SOLNI) = conditions: Application post-emergence, 1000 mg/l spray equivalent to 1000 g/ha, evaluated after 9 days (100=total damage to plant, 0=no damage to plant)
Experimental: as §1

[2] = system: Amaranthus retroflexus (AMARE); conditions: Application post-emergence, 1000 mg/l spray equivalent to 1000 g/ha, evaluated after 9 days
Experimental: as §1

Stellaria media (STEME) = conditions: Application post-emergence, 1000 mg/l spray equivalent to 1000 g/ha, evaluated after 9 days (100=total damage to plant, 0=no damage to plant)
Experimental: as §1

Structure (SMILES) | damage to plant, Nasturtium officinale (NAAOF) [1] | damage to plant, Solanum nigrum (SOLNI) (Solanum nigrum (SOLNI)) | damage to plant, Amaranthus retroflexus (AMARE) [2] | damage to plant, Stellaria media (STEME) (Stellaria media (STEME))
CC(=O)Oc1c(-c2ccccc2OC(F)(F)F)c(=O)[nH]c2nccnc12 [Compound B8] | 3 | 2 | 1 | 3
CC(=O)Oc1c(-c2c(Cl)cccc2Cl)c(=O)[nH]c2nccnc12 [Compound B10] | 6 | 0 | 8 | 0
CCC(=O)Oc1c(-c2c(Cl)cccc2Cl)c(=O)[nH]c2nccnc12 [Compound B11] | 3 | 0 | 8 | 1
CC(=O)Oc1c(-c2c(Cl)cc(C(F)(F)F)cc2Cl)c(=O)[nH]c2nccnc12 [Compound B15] | 7 | 0 | 0 | 2
CC(C)(C)C(=O)Oc1c(-c2ccccc2OC(F)(F)F)c(=O)[nH]c2nccnc12 [Compound B17] | 0 | 2 | 0 | 0
CC(=O)Oc1c(-c2c(C)cc(C)cc2C)c(=O)[nH]c2nccnc12 [Compound B33] | 5 | 0 | 5 | 3
Cc1ccc(Cl)c(-c2c(OC(=O)C(C)(C)C)c3nccnc3[nH]c2=O)c1F [Compound B37] | 0 | 0 | 0 | 5
CC(C)C(=O)Oc1c(-c2cc(C(F)(F)F)ccc2Cl)c(=O)[nH]c2nccnc12 [Compound B38] | 4 | 0 | 4 | 0
O=C(Oc1c(-c2c(F)ccc(F)c2Cl)c(=O)[nH]c2nccnc12)c1ccc([N+](=O)[O-])cc1 [Compound B40] | 0 | 0 | 6 | 1
CC(C)(C)C(=O)Oc1c(-c2c(Cl)cc(C(F)(F)F)cc2Cl)c(=O)[nH]c2nccnc12 [Compound B41] | 2 | 2 | 2 | 1
CCn1c(=O)c(-c2ccc(F)cc2Cl)c(OC(=O)C(C)C)c2nccnc21 [Compound C3] | 7 | 5 | 0 | 6
CC(C)C(=O)Oc1c(-c2ccc(F)cc2Cl)c(=O)n(C)c2nccnc12 [Compound C5] | 7 | 2 | 7 | 8
CCn1c(=O)c(-c2ccc(Cl)cc2Cl)c(OC(C)=O)c2nccnc21 [Compound C6] | 8 | 5 | 8 | 9
COCCn1c(=O)c(-c2ccc(Cl)cc2Cl)c(OC(C)=O)c2nccnc21 [Compound C9] | 2 | 3 | 0 | 2
CCn1c(=O)c(-c2c(F)ccc(F)c2Cl)c(OC(=O)C(C)C)c2nccnc21 [Compound C11] | 8 | 5 | 9 | 8
CCn1c(=O)c(-c2c(F)ccc(F)c2Cl)c(OC(C)=O)c2nccnc21 [Compound C13] | 8 | 2 | 8 | 8
C=CCn1c(=O)c(-c2c(F)ccc(F)c2Cl)c(OC(C)=O)c2nccnc21 [Compound C14] | 8 | 4 | 7 | 8
COCCn1c(=O)c(-c2c(F)ccc(F)c2Cl)c(OC(=O)C(C)C)c2nccnc21 [Compound C15] | 6 | 1 | 0 | 5
CC(C)n1c(=O)c(-c2c(F)ccc(F)c2Cl)c(OC(=O)C(C)(C)C)c2nccnc21 [Compound C19] | 4 | 3 | 0 | 6
CCn1c(=O)c(-c2c(F)ccc(F)c2Cl)c(OC(=O)C(C)(C)C)c2nccnc21 [Compound C21] | 8 | 0 | 8 | 8
C=CCCn1c(=O)c(-c2ccccc2OC(F)(F)F)c(OC(C)=O)c2nccnc21 [Compound C22] | 8 | 2 | 1 | 5
CC(C)n1c(=O)c(-c2ccccc2OC(F)(F)F)c(OC(=O)C(C)(C)C)c2nccnc21 [Compound C23] | 0 | 4 | 0 | 0
CC(=O)Oc1c(-c2ccccc2OC(F)(F)F)c(=O)n(Cc2ccccc2)c2nccnc12 [Compound C24] | 4 | 3 | 0 | 3
C=CCn1c(=O)c(-c2ccccc2OC(F)(F)F)c(OC(=O)C(C)(C)C)c2nccnc21 [Compound C25] | 0 | 0 | 0 | 2
CCn1c(=O)c(-c2ccccc2OC(F)(F)F)c(OC(=O)C(C)(C)C)c2nccnc21 [Compound C26] | 0 | 0 | 0 | 2
CCn1c(=O)c(-c2ccccc2OC(F)(F)F)c(OC(C)=O)c2nccnc21 [Compound C27] | 7 | 6 | 7 | 5
CCC(=O)Oc1c(-c2ccccc2OC(F)(F)F)c(=O)n(C)c2nccnc12 [Compound C28] | 7 | 2 | 2 | 7
Cn1c(=O)c(-c2ccccc2OC(F)(F)F)c(OC(=O)C(C)(C)C)c2nccnc21 [Compound C29] | 2 | 4 | 0 | 0
C=CCn1c(=O)c(-c2c(Cl)cccc2Cl)c(OC(=O)CC)c2nccnc21 [Compound C30] | 8 | 4 | 8 | 8

Source: patent US8133847B2, “Pyrido[2,3-B]pyrazine derivatives useful as herbicidal compounds” (Syngenta Limited, priority 2006, dated 2012)
